Experimental data published in PubChem BioAssay AID1963961 (Molecular Pharmacology Branch, DTP, NCI, 2024).
Where “and” joins values, the source holds several entries; their conditions need not be identical. Equal values may be shown once.

Tested on: K98450-129-R-PDC multicell spheroids, viability
Assay: Anticancer human tumor K98450-129-R-PDC patient-derived colon adenocarcinoma cell line growth inhibition [PI3K]
Conditions: for viability, T/C: stronger effect = lower value
Source text: Combinatorial screen of targeted agents with the PI3K inhibitors inavolisib, alpelisib, duvelisib, and copanlisib in multi-cell type tumor spheroids
A high-throughput screen of multi-cell type tumor spheroids was designed to identify active combinations of targeted small molecules and PI3K pathway inhibitors. Complex spheroids include a stromal component modeled by human endothelial cells (HUVEC) and fibroblasts modeled by human mesenchymal stem cells (MSCs). The concentration ranges selected for each drug and investigational agent were based upon clinically achievable concentrations if the clinical Cmax of the agent was known.
Compounds. The drugs and investigational agents: inavolisib (NSC800729), alpelisib (NSC765974), duvelisib (NSC772469), copanlisib (NSC816437), ipatasertib (NSC767898), afuresertib (NSC778305), talazoparib (NSC767125), sapanisertib (NSC764658), selumetinib (NSC741078), tovorafenib (DAY101, NSC766906), vemurafenib (NSC761431), ravoxertinib (NSC781343), sotorasib (NSC818433), MRTX1133 (NSC 836407), abemaciclib (NSC 768073), palbociclib (NSC758247), venetoclax (NSC 766270), SY5609 (NSC837396), enzalutamide (NSC755605), and darolutamide (NSC825331), were obtained from the National Cancer Institute (NCI) Developmental Therapeutics Program Chemical Repository. The FDA-approved anticancer drug set is available from the NCI Developmental Therapeutics Program. […] The stock solutions were prepared in dimethyl sulfoxide (DMSO, Sigma-Aldrich, St. Louis, MO, cat. D2650) at 800-fold the tested concentration and stored at -70 degrees C prior to their use. All drugs and investigational agents were tested over a range starting from a high concentration at or near the clinical Cmax and decreasing in half-log increments. If the clinical Cmax for an agent had not been determined, the highest concentration tested was 10 microM.
Cell Culture. All cells were maintained in an incubator at 37 degrees C and 5% CO2 with 95% humidity. The PDC lines were cultured according to standard operating procedures established by the NCI PDMR (https://pdmr.cancer.gov/sops/default.htm). All PDCs were thawed and cultured in Matrigel-coated flasks prepared with a working solution of 1X Ham's F-12 nutrient mix, without supplementation (Invitrogen, Waltham, MA, cat. 11765054), 100 U/mL penicillin-streptomycin (Invitrogen, cat. 15140122), and 2.5% Matrigel (Corning Inc., Corning, NY, cat. 354248) for the first three passages. The 354836-022-R-J1-PDC, 475296-252-R-J1-PDC, and 997726-040-R-J2-PDC lines were cultured in 6A media, which includes advanced DMEM/F-12 (Thermo Fisher Scientific, cat. 12634028), 10 mM HEPES (Thermo Fisher Scientific, cat. 15630080), 1X GlutaMAX supplement (Thermo Fisher Scientific, cat. 35050061), 0.1 mg/mL primocin (InvivoGen, San Diego, CA, cat. ant-pm-2), 10% defined fetal bovine serum, heat inactivated (HyClone Laboratories Inc., Logan, UT, cat. SH30070.03HI), 50% L-WRN conditioned media (ATCC, cat. CRL-3276), 1.25 mM N-Acetyl-L-cysteine (Sigma-Aldrich, cat. A9165), 10 mM nicotinamide (Sigma-Aldrich, cat. N0636), 1X B-27 supplement (Thermo Fisher Scientific, cat. 17504044), 1X N-2 supplement (Thermo Fisher Scientific, cat. 17502048), and 10 microM Y-27632 dihydrochloride (Tocris Bioscience, Bristol, United Kingdom, cat. 1254). The 624824-186-R-J2-PDC line was cultured in 6C/Colon 1B media, which includes all 6A media components plus 50 ng/mL human EGF recombinant protein (Thermo Fisher Scientific, cat. PHG0311). […]

[1] = curve of first compound, second compound 0.0316 µM
[2] = curve of first compound, second compound 0.1 µM
[3] = curve of first compound, second compound 0.316 µM
[4] = curve of first compound, second compound 1 µM
[5] = second compound 0.0316 µM, first compound 0.0316 µM
[6] = second compound 0.0316 µM, first compound 0.1 µM
[7] = second compound 0.0316 µM, first compound 0.316 µM
[8] = second compound 0.0316 µM, first compound 1 µM
[9] = second compound 0.0316 µM, first compound 3.16 µM
[10] = second compound 0.0316 µM, first compound 10 µM
[11] = second compound 0.1 µM, first compound 0.0316 µM
[12] = second compound 0.1 µM, first compound 0.1 µM
[13] = second compound 0.1 µM, first compound 0.316 µM
[14] = second compound 0.1 µM, first compound 1 µM
[15] = second compound 0.1 µM, first compound 3.16 µM
[16] = second compound 0.1 µM, first compound 10 µM
[17] = second compound 0.316 µM, first compound 0.0316 µM
[18] = second compound 0.316 µM, first compound 0.1 µM
[19] = second compound 0.316 µM, first compound 0.316 µM
[20] = second compound 0.316 µM, first compound 1 µM
[21] = second compound 0.316 µM, first compound 3.16 µM
[22] = second compound 0.316 µM, first compound 10 µM
[23] = second compound 1 µM, first compound 0.0316 µM
[24] = second compound 1 µM, first compound 0.1 µM
[25] = second compound 1 µM, first compound 0.316 µM
[26] = second compound 1 µM, first compound 1 µM
[27] = second compound 1 µM, first compound 3.16 µM
[28] = second compound 1 µM, first compound 10 µM
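Also: spheroids exposed to agents for seven days before read-out.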

`CC1(C)CCC(Nc2ncc(C(F)(F)F)c(-c3c[nH]c4c(P(C)(C)=O)c(C#N)ccc34)n2)CN1` (stereo not drawn) + CC(Nc1ncnc2nc[nH]c12)c1cc2cccc(Cl)c2c(=O)n1-c1ccccc1 was tested, and the IC50 [1] was over 10 µM, the IC50 [2] was 7.06 µM and the IC50 [3] was over 10 µM. The IC50 [4] was 4.51 µM, the IC50 (curve of first compound, second compound 3.16 µM) was 5.35 µM and the IC50 (curve of first compound, second compound 10 µM) was 2.33 µM. It also gave a viability, T/C [5] of 104%, a viability, T/C [6] of 85.5% and a viability, T/C [7] of 67.9%. For the same molecule, the viability, T/C [8] was 67.4%, the viability, T/C [9] was 66.2% and the viability, T/C [10] was 44.5%. It also gave a viability, T/C [11] of 139%, a viability, T/C [12] of 108% and a viability, T/C [13] of 69.2%. It also gave a viability, T/C [14] of 68.7%, a viability, T/C [15] of 78.7% and a viability, T/C [16] of 45.2%. It also gave a viability, T/C [17] of 101%, a viability, T/C [18] of 98.4% and a viability, T/C [19] of 75.3%. The viability, T/C [20] was 58.6%, the viability, T/C [21] was 76.8% and the viability, T/C [22] was 45%. For the same molecule, the viability, T/C [23] was 107%, the viability, T/C [24] was 93.6% and the viability, T/C [25] was 74.7%. The viability, T/C [26] was 64.6%, the viability, T/C [27] was 62.9% and the viability, T/C [28] was 36.9%. It also gave a viability, T/C (second compound 3.16 µM, first compound 0.0316 µM) of 101%, a viability, T/C (second compound 3.16 µM, first compound 0.1 µM) of 82.4% and a viability, T/C (second compound 3.16 µM, first compound 0.316 µM) of 63.8%. It also gave a viability, T/C (second compound 3.16 µM, first compound 1 µM) of 70.9%, a viability, T/C (second compound 3.16 µM, first compound 3.16 µM) of 65.1% and a viability, T/C (second compound 3.16 µM, first compound 10 µM) of 36.7%. It also gave a viability, T/C (second compound 10 µM, first compound 0.0316 µM) of 94.9%, a viability, T/C (second compound 10 µM, first compound 0.1 µM) of 88.5% and a viability, T/C (second compound 10 µM, first compound 0.316 µM) of 63.3%. It also gave a viability, T/C (second compound 10 µM, first compound 1 µM) of 62%, a viability, T/C (second compound 10 µM, first compound 3.16 µM) of 59.6% and a viability, T/C (second compound 10 µM, first compound 10 µM) of 21.6%.

In the case of `CC(Nc1ncnc2nc[nH]c12)c1cc2cccc(Cl)c2c(=O)n1-c1ccccc1` (stereo not drawn), the viability, T/C (compound 0.0316 µM) is reported as 105% [middle of 8 runs], the viability, T/C (compound 0.1 µM) is reported as 98.9% [middle of 8 runs] and the viability, T/C (compound 0.316 µM) is reported as 103% [middle of 8 runs]. For the same molecule, the viability, T/C (compound 1 µM) was 99.9% [middle of 8 runs], the viability, T/C (compound 3.16 µM) was 105% [middle of 8 runs] and the viability, T/C (compound 10 µM) was 97.6% [middle of 8 runs]. The IC50 (compound alone, run of 04/25/2023) was over 10 µM.

`Cn1ncc(Cl)c1-c1cc(C(=O)NC(CN)Cc2cccc(F)c2)sc1Cl` (stereo not drawn) + COc1c(OCCCN2CCOCC2)ccc2c3n(c(=NC(=O)c4cnc(N)nc4)nc12)CCN3 showed an IC50 (curve of first compound, second compound 0.00316 µM) of over 10 µM, an IC50 (curve of first compound, second compound 0.01 µM) of over 10 µM and an IC50 [1] of over 10 µM. For the same molecule, the IC50 [2] was over 10 µM, the IC50 [3] was over 10 µM and the IC50 [4] was over 10 µM. The viability, T/C (second compound 0.00316 µM, first compound 0.0316 µM) was 112%, the viability, T/C (second compound 0.00316 µM, first compound 0.1 µM) was 101% and the viability, T/C (second compound 0.00316 µM, first compound 0.316 µM) was 99.2%. It also gave a viability, T/C (second compound 0.00316 µM, first compound 1 µM) of 98.8%, a viability, T/C (second compound 0.00316 µM, first compound 3.16 µM) of 89.2% and a viability, T/C (second compound 0.00316 µM, first compound 10 µM) of 63.9%. It also gave a viability, T/C (second compound 0.01 µM, first compound 0.0316 µM) of 117%, a viability, T/C (second compound 0.01 µM, first compound 0.1 µM) of 103% and a viability, T/C (second compound 0.01 µM, first compound 0.316 µM) of 103%. For the same molecule, the viability, T/C (second compound 0.01 µM, first compound 1 µM) was 83.5%, the viability, T/C (second compound 0.01 µM, first compound 3.16 µM) was 78.9% and the viability, T/C (second compound 0.01 µM, first compound 10 µM) was 76%. It also gave a viability, T/C [5] of 86.9%, a viability, T/C [6] of 99.8% and a viability, T/C [7] of 90.9%. It also gave a viability, T/C [8] of 78.9%, a viability, T/C [9] of 89% and a viability, T/C [10] of 58.5%. It also gave a viability, T/C [11] of 72.4%, a viability, T/C [12] of 70.4% and a viability, T/C [13] of 78.9%. For the same molecule, the viability, T/C [14] was 83.3%, the viability, T/C [15] was 69.5% and the viability, T/C [16] was 70.3%. The viability, T/C [17] was 64.6%, the viability, T/C [18] was 68.4% and the viability, T/C [19] was 70.6%. It also gave a viability, T/C [20] of 47.8%, a viability, T/C [21] of 80.4% and a viability, T/C [22] of 51%. It also gave a viability, T/C [23] of 52.4%, a viability, T/C [24] of 71.5% and a viability, T/C [25] of 48.7%. It also gave a viability, T/C [26] of 65.7%, a viability, T/C [27] of 59.8% and a viability, T/C [28] of 41.7%.

In the case of `CCN1CCN(Cc2ccc(Nc3ncc(F)c(-c4cc(F)c5nc(C)n(C(C)C)c5c4)n3)nc2)CC1`, the viability, T/C (compound 0.00316 µM) is reported as 108% [middle of 4 runs], the viability, T/C (compound 0.01 µM) is reported as 99.3% [middle of 4 runs] and the viability, T/C (compound 0.0316 µM) is reported as 106% and 101% (2×) and 97%. The viability, T/C (compound 0.1 µM) was 94.1% [middle of 4 runs], the viability, T/C (compound 0.316 µM) was 86.5% [middle of 4 runs] and the viability, T/C (compound 1 µM) was 87.5% [middle of 4 runs]. For the same molecule, the IC50 (curve of compound) was over 1 µM.
